We go through two molecules from US20040038233A1, “Diagnosis kit for mycobacterium species indentification and drug-resistance detection and manufacturing method thereof” (priority 2000, published 2004).

Read-outs that look alike come from different tables or passages of the source.

For test [1], the system named is Mycobacterium tuberculosis rpoB gene mutants. Set-up: key to DRUG-SUSCEPTIBILITY: R represents resistance; S represents susceptibility. To be noted: cited from earlier work.
The test system of test [2] is Mycobacterium tuberculosis. The format is cell-based.

Consider `CO[C@H]1/C=C/O[C@@]2(C)Oc3c(C)c(O)c4c(c3C2=O)C2=NC3(CCN(CC(C)C)CC3)NC2=C(NC(=O)/C(C)=C\C=C\[C@H](C)[C@H](O)[C@@H](C)[C@@H](O)[C@@H](C)[C@H](OC(C)=O)[C@@H]1C)C4=O` [rifabutin, Rifabutin], for which the DRUG-SUSCEPTIBILITY entry in test [1] (509 MUTANT (probe Mt509)) is “S”; in test [1] (509 WILD TYPE (probe Wt509)), “RFP-S, RBU-S”; in test [1] (524 MUTANT (probe Mt524)), “RFP-R, RBU-R”; in test [1] (524 WILD TYPE (probe Wt524)), “RFP-S, RBU-S”; in test [1] (533 MUTANT (probe Mt533)), “RFP-R, RBU-R”; in test [1] (533 WILD TYPE (probe Wt533)), “RFP-S, RBU-S”. The “drug-susceptibility of codon 526 mutants” value is “susceptibility” in test [1] (codon 526 His>Gln, Gly, Asn, Ala, or Cys) and “resistance” in test [1] (codon 526 His>Tyr, Pro, Arg, or Asp).
In the case of `CO[C@H]1/C=C/O[C@@]2(C)Oc3c(C)c(O)c4c(O)c(c(/C=N/N5CCN(C)CC5)c(O)c4c3C2=O)NC(=O)/C(C)=C\C=C\[C@H](C)[C@H](O)[C@@H](C)[C@@H](O)[C@@H](C)[C@H](OC(C)=O)[C@@H]1C` [rifampin], the drug-susceptibility test result in test [2] is “resistance”. Besides, the DRUG-SUSCEPTIBILITY result in test [1] (509 MUTANT (probe Mt509)) is “R”; in test [1] (509 WILD TYPE (probe Wt509)), “RFP-S, RBU-S”; in test [1] (524 MUTANT (probe Mt524)), “RFP-R, RBU-R”; in test [1] (524 WILD TYPE (probe Wt524)), “RFP-S, RBU-S”; in test [1] (533 MUTANT (probe Mt533)), “RFP-R, RBU-R”; in test [1] (533 WILD TYPE (probe Wt533)), “RFP-S, RBU-S”.
